The results in this text go back to PMC4447944 (The Journal of Biological Chemistry, 2015).

The target in one series is T1, hABL1(pF317L) (Homo sapiens, UniProt P00519, F317L).
T1 construct: purchased DiscoverX (KINOMEscan platform)
Description: KINOMEscan. In kind it is binding.

The target of the next series is T2, hINSRR (Homo sapiens, UniProt P14616).
T2 construct: purchased DiscoverX (KINOMEscan panel)
Description: KINOMEscan. Format: binding.

The target in the next series is T3, hBUB1 (Homo sapiens, UniProt O43683).
T3 construct: purchased DiscoverX
Description: KINOMEscan. Format: binding.

In a further series the target is T4, hERK1 (Homo sapiens, UniProt P27361).
T4 construct: purchased DiscoverX
The series can be described thus: KINOMEscan. In kind it is binding.

The next series concerns the target hOPRm1 (Homo sapiens, UniProt P35372). The series can be described thus: cAMP Agonist (Eurofins-CEREP). The settings on record: @ 1 μM.
The next series has as its target T5, hHIPK2 (Homo sapiens, UniProt Q9H2X6).
T5 construct: purchased DiscoverX
The series can be described thus: KINOMEscan. Format: binding.

Another series addresses T6, hEGFR(T790M) (Homo sapiens, UniProt P00533, T790M).
T6 construct: purchased DiscoverX
The series can be described thus: KINOMEscan. In kind it is binding.

In another series the target is T7, hABL1(pQ252H) (Homo sapiens, UniProt P00519, Q252H).
T7 construct: purchased DiscoverX (KINOMEscan platform)
The series can be described thus: KINOMEscan. Format: binding.

A further series deals with hADRβ2 (Homo sapiens, UniProt P07550). The series can be described thus: β-arrestin Antagonist (Eurofins-CEREP). The settings on record: read-out: % Effect, Inhibition.
The target of another series is T8, hCAMK1G (Homo sapiens, UniProt Q96NX5).
T8 construct: purchased DiscoverX
The series can be described thus: KINOMEscan. In kind it is binding.

In a further series the target is T9, hSTK39 (Homo sapiens, UniProt Q9UEW8).
T9 construct: purchased DiscoverX (KINOMEscan platform)
Description: KINOMEscan. In kind it is binding.

The next series addresses T10, hPYK2 (Homo sapiens, UniProt Q14289).
T10 construct: purchased DiscoverX
Description: KINOMEscan. Format: binding.

Series [1] has as its system ESCC, HCC, and breast cancer cell lines. Description: Proliferation assay (CellTiter-Glo). Format: cell-based. The settings on record: Homo sapiens, range over cell lines of all three panels. As to the method: Cell viability was measured using CellTiter-Glo^TM (Promega) according to the manufacturer's instructions.
A general note: Cellular ATP, detected with luciferase, serves as a proxy for viable cell number.

The target in another series is T11, hRIPK2 (Homo sapiens, UniProt O43353).
T11 construct: purchased DiscoverX (KINOMEscan platform)
The series can be described thus: KINOMEscan. Format: binding.

A further series has as its target T12, hEGFR(L858R,T790M) (Homo sapiens, UniProt P00533, L858R/T790M).
T12 construct: purchased DiscoverX
The series can be described thus: KINOMEscan. Format: binding.

A further series has as its target hH1 (Homo sapiens, UniProt P35367). The series can be described thus: Ca Mobilization Agonist (Eurofins-CEREP). The settings on record: @ 13.3 μM.
The target in a further series is T13, hFER (Homo sapiens, UniProt P16591).
T13 construct: purchased DiscoverX
Description: KINOMEscan. Format: binding.

Another series deals with T14, hM2 (Homo sapiens, UniProt P08172).
T14 sequence (P08172 1-466): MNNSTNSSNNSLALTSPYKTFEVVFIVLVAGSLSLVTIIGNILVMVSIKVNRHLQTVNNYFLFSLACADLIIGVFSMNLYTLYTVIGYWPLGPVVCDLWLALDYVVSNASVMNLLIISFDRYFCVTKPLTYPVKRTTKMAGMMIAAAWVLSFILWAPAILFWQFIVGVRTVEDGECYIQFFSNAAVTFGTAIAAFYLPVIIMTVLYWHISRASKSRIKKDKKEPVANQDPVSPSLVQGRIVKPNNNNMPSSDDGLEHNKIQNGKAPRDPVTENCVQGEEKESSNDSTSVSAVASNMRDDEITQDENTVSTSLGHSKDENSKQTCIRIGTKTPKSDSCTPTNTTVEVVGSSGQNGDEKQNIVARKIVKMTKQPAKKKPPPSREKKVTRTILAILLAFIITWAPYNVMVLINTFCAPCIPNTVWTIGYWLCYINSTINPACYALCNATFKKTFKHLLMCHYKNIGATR
Description: β-arrestin Agonist (Eurofins-CEREP). The note with it: @ 10 μM.

Series [2] deals with 454 kinases, 35 G protein-coupled receptors, 14 nuclear hormone receptors, and three cytochrome P450 enzymes. Description: Off-target profiling summary. The settings on record: 35 GPCRs. As to the method:
The compound was further profiled against 454 kinases, […], 14 nuclear hormone receptors, and three cytochrome P450 enzyme targets (supplemental Tables 2–4). The only inhibitory activity that was noted (at 98% at 10 μM) targeted the calcium mobilization antagonist mode of hADRα1A, a member of the G protein-coupled receptor family involved in epinephrine signaling.

The next series relates to mono-methyl-Lys370 p53. Description: Meso Scale Discovery sandwich ELISA mono-methyl-Lys370 p53/total p53, KYSE-150 cells stably expressing FLAG-SMYD2. In kind it is cell-based. The settings on record: Homo sapiens; KYSE-150 stably expressing SMYD2, sandwich ELISA, 24 h. As to the method:
Cell lysates were subject to 10% SDS-PAGE and transferred to a PVDF membrane. Each membrane was blocked in Odyssey Blocking Buffer (LI-COR Biosciences) and incubated with monoclonal anti-p53 (D01) antibody (Abcam, ab1101) or rabbit anti-p53 Lys^370me1 antibody (a kind gift from Dr. Shelley Berger) followed by detection with IRDye®680RD goat anti-mouse IgG (LI-COR Biosciences) and IRDye800CW goat anti-rabbit IgG (LI-COR Biosciences) on the Odyssey Imager (LI-COR Biosciences). […] 4–8 h later, cells were treated with 0–25 μM compound for 15 h. […] 24 h later, cells were lysed with 200 μl of MSD Tris Lysis Buffer^TM (Meso Scale Discovery). A MULTI-ARRAY^TM 96-well plate (Meso Scale Discovery, catalog number L15XA-3) was precoated with 2 μg/ml custom-made methyl-p53 antibody (Lampire) in PBS overnight at 4 °C. 150 μl/well MSD Blocking Solution A^TM (final concentration of 3%) was added followed by shaking at room temperature for 1 h. The plate was washed three times with 1× MSD Tris Wash Buffer^TM (Meso Scale Discovery). 0.5 μg of cell lysate in 25 μl/well MSD Tris Lysis Buffer was added, followed by shaking overnight at 4 °C. […] Following a final wash three times with 1× MSD Tris Wash Buffer, 150 μl/well 1× MSD Read Buffer^TM (Meso Scale Discovery) was added, and plates were read on an MSD SECTOR^TM Imager 6000 instrument (Meso Scale Discovery).
In general terms: In an ELISA, binding on a coated surface is turned into a signal by an enzyme label.

In another series the target is T15, hLYN (Homo sapiens, UniProt P07948).
T15 construct: purchased DiscoverX (KINOMEscan platform)
The series can be described thus: KINOMEscan. Format: binding.

pIC50: −log10 of the molar value. Read-outs that look alike come from different tables or passages of the source.

As a reminder, the inhibition is the drop in the measured response relative to a control, in per cent.

T15 sequence (P07948 whole entry): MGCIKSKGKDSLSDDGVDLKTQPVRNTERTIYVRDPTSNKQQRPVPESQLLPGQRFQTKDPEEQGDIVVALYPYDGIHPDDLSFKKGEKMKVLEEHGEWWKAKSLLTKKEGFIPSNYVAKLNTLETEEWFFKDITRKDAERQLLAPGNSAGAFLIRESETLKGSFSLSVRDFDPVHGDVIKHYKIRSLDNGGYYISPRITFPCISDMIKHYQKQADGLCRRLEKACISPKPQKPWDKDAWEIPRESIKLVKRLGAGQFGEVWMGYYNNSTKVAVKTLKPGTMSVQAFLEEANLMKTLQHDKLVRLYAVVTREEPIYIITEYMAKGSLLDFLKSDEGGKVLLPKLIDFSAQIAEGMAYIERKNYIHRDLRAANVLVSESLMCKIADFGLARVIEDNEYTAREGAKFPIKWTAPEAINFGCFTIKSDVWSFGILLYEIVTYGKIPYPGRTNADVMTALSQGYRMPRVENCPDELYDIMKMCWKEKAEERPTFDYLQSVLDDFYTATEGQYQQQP
T8 sequence (Q96NX5 whole entry): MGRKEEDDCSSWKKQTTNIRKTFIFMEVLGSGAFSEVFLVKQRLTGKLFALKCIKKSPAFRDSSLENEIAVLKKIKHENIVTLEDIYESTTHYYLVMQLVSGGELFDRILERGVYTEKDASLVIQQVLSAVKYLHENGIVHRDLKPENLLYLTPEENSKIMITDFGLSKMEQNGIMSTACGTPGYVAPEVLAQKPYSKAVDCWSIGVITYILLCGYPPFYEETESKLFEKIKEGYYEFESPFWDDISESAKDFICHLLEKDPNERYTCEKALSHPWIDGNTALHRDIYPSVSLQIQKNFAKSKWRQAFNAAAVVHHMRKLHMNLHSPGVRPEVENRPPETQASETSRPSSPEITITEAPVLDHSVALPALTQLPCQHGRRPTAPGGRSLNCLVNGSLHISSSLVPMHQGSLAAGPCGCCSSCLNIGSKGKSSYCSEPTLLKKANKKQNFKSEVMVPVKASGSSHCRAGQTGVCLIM
Chain of hOPRm1 (P35372 whole entry): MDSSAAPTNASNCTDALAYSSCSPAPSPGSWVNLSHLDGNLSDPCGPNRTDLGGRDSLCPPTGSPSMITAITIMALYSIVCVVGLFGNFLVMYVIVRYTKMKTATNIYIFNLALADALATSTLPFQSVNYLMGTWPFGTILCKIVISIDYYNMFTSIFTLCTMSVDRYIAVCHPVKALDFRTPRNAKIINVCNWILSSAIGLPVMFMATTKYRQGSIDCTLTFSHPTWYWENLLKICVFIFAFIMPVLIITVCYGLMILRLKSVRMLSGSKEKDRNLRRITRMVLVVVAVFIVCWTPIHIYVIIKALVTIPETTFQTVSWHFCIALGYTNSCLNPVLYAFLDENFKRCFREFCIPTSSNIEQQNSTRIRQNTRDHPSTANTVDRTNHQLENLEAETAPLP
T5 sequence (Q9H2X6 whole entry): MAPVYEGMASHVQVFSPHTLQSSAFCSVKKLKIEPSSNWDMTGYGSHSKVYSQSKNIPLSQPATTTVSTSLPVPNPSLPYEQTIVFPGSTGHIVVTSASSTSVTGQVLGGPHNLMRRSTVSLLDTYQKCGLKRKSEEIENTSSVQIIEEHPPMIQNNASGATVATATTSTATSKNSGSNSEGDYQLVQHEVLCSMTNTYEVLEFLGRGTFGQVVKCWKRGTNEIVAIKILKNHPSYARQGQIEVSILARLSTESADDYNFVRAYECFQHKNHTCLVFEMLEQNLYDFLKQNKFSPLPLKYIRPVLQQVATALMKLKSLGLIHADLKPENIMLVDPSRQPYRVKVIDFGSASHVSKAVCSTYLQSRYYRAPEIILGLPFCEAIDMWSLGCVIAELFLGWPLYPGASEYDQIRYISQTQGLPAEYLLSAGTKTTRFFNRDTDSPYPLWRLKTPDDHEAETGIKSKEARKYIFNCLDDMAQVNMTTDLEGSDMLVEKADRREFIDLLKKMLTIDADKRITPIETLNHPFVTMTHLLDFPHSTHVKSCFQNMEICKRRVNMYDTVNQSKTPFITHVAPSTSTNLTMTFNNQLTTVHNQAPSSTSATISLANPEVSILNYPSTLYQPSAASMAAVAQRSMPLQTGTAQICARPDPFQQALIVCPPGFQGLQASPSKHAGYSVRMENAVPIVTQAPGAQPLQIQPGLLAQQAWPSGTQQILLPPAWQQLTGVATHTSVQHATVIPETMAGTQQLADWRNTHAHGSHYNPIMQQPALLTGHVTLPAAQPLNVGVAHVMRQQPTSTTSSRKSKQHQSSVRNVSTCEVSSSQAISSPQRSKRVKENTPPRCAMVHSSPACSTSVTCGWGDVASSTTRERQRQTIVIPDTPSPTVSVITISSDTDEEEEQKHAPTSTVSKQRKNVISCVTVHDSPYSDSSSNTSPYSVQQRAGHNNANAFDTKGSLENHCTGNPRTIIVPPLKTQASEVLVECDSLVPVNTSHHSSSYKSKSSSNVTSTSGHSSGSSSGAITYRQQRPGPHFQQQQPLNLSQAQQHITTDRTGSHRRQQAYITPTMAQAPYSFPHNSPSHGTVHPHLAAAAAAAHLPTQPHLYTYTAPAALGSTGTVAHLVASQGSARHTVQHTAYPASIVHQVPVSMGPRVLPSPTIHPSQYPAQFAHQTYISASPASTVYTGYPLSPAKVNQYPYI
T4 sequence (P27361 whole entry): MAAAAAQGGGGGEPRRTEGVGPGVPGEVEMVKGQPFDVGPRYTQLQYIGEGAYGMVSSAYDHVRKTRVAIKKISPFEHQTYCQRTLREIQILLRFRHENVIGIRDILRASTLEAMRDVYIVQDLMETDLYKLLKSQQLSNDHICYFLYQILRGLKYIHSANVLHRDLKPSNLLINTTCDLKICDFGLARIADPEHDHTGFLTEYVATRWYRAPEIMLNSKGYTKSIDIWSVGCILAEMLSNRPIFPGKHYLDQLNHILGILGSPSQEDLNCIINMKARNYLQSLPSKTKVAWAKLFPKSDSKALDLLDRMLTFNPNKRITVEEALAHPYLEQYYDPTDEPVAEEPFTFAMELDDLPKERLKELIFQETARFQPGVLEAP
Chain of hH1 (P35367 whole entry): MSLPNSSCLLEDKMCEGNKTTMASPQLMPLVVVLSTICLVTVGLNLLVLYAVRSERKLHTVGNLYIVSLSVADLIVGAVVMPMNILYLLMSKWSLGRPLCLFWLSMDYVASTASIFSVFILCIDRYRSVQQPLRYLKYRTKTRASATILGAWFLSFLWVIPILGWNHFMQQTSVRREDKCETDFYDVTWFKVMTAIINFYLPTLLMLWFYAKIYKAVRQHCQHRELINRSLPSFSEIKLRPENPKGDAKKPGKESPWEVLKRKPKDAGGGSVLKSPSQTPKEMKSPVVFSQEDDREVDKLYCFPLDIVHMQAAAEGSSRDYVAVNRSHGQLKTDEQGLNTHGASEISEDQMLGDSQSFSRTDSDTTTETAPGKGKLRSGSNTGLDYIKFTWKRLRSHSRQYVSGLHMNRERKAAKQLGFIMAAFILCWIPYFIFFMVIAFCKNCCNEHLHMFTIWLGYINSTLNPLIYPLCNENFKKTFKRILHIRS
T2 sequence (P14616 27-1297): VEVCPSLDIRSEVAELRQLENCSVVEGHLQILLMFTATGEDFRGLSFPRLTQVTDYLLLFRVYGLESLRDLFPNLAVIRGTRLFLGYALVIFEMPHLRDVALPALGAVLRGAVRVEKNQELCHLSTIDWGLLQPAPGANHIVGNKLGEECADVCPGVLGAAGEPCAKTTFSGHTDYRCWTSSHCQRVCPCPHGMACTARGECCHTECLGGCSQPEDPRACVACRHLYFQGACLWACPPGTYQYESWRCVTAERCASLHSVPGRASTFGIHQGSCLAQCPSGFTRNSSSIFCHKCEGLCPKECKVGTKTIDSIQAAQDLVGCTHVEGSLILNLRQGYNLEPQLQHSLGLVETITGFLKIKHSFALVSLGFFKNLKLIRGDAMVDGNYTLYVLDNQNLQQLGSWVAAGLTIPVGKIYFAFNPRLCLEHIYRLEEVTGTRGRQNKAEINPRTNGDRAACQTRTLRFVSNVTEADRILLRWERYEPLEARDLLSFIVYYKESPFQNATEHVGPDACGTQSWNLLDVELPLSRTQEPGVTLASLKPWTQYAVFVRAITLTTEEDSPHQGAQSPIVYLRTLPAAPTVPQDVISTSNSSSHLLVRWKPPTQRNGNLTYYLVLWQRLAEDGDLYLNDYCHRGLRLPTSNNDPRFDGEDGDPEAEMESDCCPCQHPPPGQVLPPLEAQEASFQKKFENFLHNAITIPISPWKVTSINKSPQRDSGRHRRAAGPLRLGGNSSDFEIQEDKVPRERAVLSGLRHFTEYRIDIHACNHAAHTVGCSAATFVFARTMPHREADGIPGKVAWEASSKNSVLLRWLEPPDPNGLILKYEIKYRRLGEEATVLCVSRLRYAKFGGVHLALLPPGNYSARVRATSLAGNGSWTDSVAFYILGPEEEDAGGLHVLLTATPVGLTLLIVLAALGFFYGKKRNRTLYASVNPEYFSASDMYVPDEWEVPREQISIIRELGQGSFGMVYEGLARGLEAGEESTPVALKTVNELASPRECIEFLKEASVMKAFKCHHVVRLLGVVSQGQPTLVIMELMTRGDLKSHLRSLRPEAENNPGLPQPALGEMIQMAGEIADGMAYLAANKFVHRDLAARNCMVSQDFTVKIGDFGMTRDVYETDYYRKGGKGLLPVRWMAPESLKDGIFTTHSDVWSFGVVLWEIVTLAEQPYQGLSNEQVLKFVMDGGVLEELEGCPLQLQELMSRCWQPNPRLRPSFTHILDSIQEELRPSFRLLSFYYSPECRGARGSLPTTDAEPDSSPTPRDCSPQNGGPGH

In the case of `Cc1cn(CCN2CCN(c3ccccc3-c3cc(C#N)cc(C(=O)NCCCN4CCCC4)c3)CC2)c2ccccc12` [LLY-507, 3-cyano-5-{2-[4-[2-(3-methylindol-1-yl)ethyl]piperazin-1-yl]-phenyl}-N-[(3-pyrrolidin-1-yl)propyl]benzamide], the pIC50 against hABL1(pF317L), on hINSRR, against hBUB1, on hERK1, on hHIPK2 and against hEGFR(T790M) was less than 4.70 in each case. Further, the pIC50 is less than 4.70 against hABL1(pQ252H); less than 4.70 on hCAMK1G; less than 4.70 against hSTK39; less than 4.70 on hPYK2; 5.22 to 5.82 in series [1] (96 h, 3 to 4-day treatment, read-out: IC50, proliferation, standard assay); 5.49 to 6.52 in series [1] (168 h, 7-day treatment, read-out: IC50, proliferation, longer term assay). Moreover, the pIC50 is less than 4.70 on hRIPK2; less than 4.70 at hEGFR(L858R,T790M); less than 4.70 against hFER; 6.22 in the series on mono-methyl-Lys370 p53; less than 4.70 against hLYN. Moreover, the “% Effect, Stimulation” value is 7.4% at hOPRm1, -2.8% on hH1 and 5.1% at hM2. The inhibition at 10 µM at hADRβ2 is -15.6%. For the same molecule, the “inactive against off-target panels” value in [2] was greater than 20 µM.
